Laboratory results taken from ChEMBL document CHEMBL2203118, “Ethyl 2,4,6-trihydroxybenzoate is an agonistic ligand for liver X receptor that induces cholesterol efflux from macrophages without affecting lipid accumulation in HepG2 cells” (Bioorg Med Chem Lett, 2012).
pEC50: −log10 of the molar value. The source made the active and inactive calls. The calls are words filed in the database; no cut-off is given here.

How the values were obtained:
[1] = tested on: HepG2; test: Reduction in SCD-1 gene expression in human HepG2 cells at 100 uM by qPCR analysis relative to control; format: functional; design: scale not given: the % may be the effect or the level left
[2] = target: T1, Liver X receptor (Homo sapiens) (UniProt Q13133+P55055); test: Agonist activity at LXR in human THP1 cells assessed as induction of ABCA1 gene expression at 100 uM after 48 hrs by immunoblot analysis relative to control; format: functional, cell-based; conditions: THP-1
[3] = target: T1, Liver X receptor (Homo sapiens); test: Agonist activity at LXR in human Caco2 cells assessed as increase in ABCG5 mRNA level at 100 uM after 48 hrs by qPCR analysis relative to control; format: functional, cell-based; conditions: Caco-2
[4] = target: T1, Liver X receptor (Homo sapiens); test: Agonist activity at LXR in human THP1 cells assessed as induction of ABCA1 gene expression after 48 hrs by qPCR analysis; format: functional, cell-based; conditions: THP-1
[5] = target: T1, Liver X receptor (Homo sapiens); test: Agonist activity at LXR in human Caco2 cells assessed as increase in ABCA1 mRNA level at 100 uM after 48 hrs by qPCR analysis relative to control; format: functional, cell-based; conditions: Caco-2
[6] = target: T2, Oxysterols receptor LXR-alpha (Homo sapiens) (UniProt Q13133); test: Agonist activity at LXR-alpha in human THP1 cells assessed as reduced cellular cholesterol concentration; format: functional, cell-based; conditions: THP-1
T2 sequence (whole entry): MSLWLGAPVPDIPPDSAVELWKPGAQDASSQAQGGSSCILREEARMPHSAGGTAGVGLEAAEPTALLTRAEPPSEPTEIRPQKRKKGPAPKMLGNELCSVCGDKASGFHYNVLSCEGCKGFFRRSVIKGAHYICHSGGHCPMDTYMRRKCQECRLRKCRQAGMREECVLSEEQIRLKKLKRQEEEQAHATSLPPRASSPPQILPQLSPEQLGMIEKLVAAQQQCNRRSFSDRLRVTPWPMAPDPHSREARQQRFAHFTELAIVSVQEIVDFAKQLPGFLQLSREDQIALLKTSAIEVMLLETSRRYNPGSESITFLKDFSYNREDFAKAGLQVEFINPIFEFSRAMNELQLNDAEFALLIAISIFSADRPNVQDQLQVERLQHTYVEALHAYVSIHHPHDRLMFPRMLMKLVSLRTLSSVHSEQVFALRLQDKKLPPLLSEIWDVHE

[7] = tested on: HepG2; test: Upregulation of FAS gene expression in human HepG2 cells at 50 to 100 uM by qPCR analysis; format: ADME, cell-based; conditions: hepg2, 100 µM
[8] = target: T1, Liver X receptor (Homo sapiens); test: Agonist activity at LXR in human THP1 cells assessed as induction of ABCG1 gene expression at 100 uM after 48 hrs by immunoblot analysis relative to control; format: functional, cell-based; conditions: THP-1
[9] = tested on: RAW264.7; test: Cytotoxicity against mouse RAW264.7 after 48 hrs by MTT assay; format: cell-based; conditions: raw264.7, 48 h
[10] = target: T3, Oxysterols receptor LXR-beta (Homo sapiens, UniProt P55055); test: Transactivation of human LXR-beta transfected in HEK293 cells after 24 hrs by luciferase reporter gene assay; format: cell-based
T3 sequence (P55055 whole entry): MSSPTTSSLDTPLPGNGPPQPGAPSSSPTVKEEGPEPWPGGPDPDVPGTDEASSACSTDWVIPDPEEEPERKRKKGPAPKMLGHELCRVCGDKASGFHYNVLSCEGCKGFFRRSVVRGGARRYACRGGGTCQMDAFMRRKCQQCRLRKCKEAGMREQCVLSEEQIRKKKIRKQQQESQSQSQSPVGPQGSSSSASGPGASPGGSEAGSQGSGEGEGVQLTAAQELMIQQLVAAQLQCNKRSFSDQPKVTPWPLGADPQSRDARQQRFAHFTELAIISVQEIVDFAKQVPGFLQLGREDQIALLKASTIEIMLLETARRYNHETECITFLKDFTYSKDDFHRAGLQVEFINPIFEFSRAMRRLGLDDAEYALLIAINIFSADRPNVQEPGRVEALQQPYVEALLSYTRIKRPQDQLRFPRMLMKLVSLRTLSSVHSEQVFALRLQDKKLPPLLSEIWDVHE

[11] = target: T2, Oxysterols receptor LXR-alpha (Homo sapiens); test: Binding affinity to human LXR-alpha LBD by SPR-Biacore assay
[12] = target: T4, Peroxisome proliferator-activated receptor gamma (Homo sapiens) (UniProt P37231); test: Transactivation of PPAR-gamma transfected in HEK293 cells at 50 to 100 uM after 24 hrs by luciferase reporter gene assay; format: cell-based
T4 sequence (whole entry): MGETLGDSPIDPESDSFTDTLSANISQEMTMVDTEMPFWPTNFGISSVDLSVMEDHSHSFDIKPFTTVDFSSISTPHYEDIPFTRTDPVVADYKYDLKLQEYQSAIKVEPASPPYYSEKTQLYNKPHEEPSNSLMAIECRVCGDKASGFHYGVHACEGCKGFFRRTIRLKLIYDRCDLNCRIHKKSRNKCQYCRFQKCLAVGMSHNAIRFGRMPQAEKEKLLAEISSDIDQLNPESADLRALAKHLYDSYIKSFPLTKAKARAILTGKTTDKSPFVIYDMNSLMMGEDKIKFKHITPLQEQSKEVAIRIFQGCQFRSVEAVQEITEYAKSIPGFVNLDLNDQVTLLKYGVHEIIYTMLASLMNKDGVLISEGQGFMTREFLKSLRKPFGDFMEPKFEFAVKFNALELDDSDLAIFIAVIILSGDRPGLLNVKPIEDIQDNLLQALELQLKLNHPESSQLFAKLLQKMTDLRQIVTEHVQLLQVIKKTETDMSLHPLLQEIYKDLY

[13] = target: T2, Oxysterols receptor LXR-alpha (Homo sapiens); test: Agonist activity at LXR-alpha in human HepG2 cells assessed as reduction in cellular cholesterol level; format: functional, cell-based
[14] = target: T2, Oxysterols receptor LXR-alpha (Homo sapiens); test: Agonist activity at LXR-alpha in human THP1 cells assessed as increase cholesterol efflux to HDL by FACs analysis; format: functional, cell-based; conditions: THP-1
[15] = target: T5, Oxysterols receptor LXR-alpha (Mus musculus) (UniProt Q9Z0Y9); test: Agonist activity at LXR-alpha in mouse RAW264.7 cells assessed as reduction in cellular cholesterol level; format: functional, cell-based
T5 sequence (whole entry): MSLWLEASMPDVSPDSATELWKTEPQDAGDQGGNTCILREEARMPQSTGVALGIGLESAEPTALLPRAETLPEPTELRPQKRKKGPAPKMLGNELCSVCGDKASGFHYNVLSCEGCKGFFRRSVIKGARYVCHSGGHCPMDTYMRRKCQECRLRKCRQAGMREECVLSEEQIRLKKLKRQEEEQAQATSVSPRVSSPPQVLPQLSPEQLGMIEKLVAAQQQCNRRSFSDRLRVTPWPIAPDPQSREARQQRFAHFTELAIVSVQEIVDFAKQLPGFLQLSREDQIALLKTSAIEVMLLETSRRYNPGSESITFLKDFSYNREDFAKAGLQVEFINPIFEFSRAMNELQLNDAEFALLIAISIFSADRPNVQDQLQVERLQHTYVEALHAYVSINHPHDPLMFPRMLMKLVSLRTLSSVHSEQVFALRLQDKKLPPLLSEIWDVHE

[16] = target: T6, Oxysterols receptor LXR-beta (Homo sapiens) (UniProt P55055); test: Transactivation of human LXR-beta transfected in HEK293 cells at 100 uM after 24 hrs by luciferase reporter gene assay; format: cell-based
T6 sequence (whole entry): T3 sequence (P55055 whole entry)

[17] = target: T6, Oxysterols receptor LXR-beta (Homo sapiens); test: Binding affinity to human LXR-beta LBD by SPR-Biacore assay
[18] = Agonist activity at LXR in mouse RAW 264.7 assessed as increase in ABCG1mRNA level at 100 uM after 48 hrs by qPCR analysis relative to control; format: functional
[19] = tested on: THP-1; test: Cytotoxicity against human THP1 cells after 48 hrs by MTT assay; format: cell-based; conditions: thp-1, 48 h
[20] = tested on: HepG2; test: Induction of lipid accumulation in human HepG2 cells assessed as increase in cellular triglyceride level by Dil staining relative to control; format: cell-based
[21] = target: T2, Oxysterols receptor LXR-alpha (Homo sapiens); test: Agonist activity at human LXR-alpha assessed as increase in recruitment of Trap 220/Drip2 coactivator peptide by TR-FRET assay; format: functional

CCOC(=O)c1c(O)cc(O)cc1O
Activity [1]: 54.09%
Activity [2]: Active
fold change (FC) [3]: 12.6
Activity [4]: Dose-dependent effect
fold change (FC) [5]: 2.1
Activity [6]: Dose-dependent effect
Activity [7]: Non-toxic
Activity [8]: Active
Activity [9]: Non-toxic
pEC50 [10]: 4.42
Activity [11]: Active
Activity [12]: inactive
Activity [13]: Dose-dependent effect
Activity [14]: Dose-dependent effect
Activity [15]: Dose-dependent effect
Activity [16]: 55%
Activity [17]: Active
fold change (FC) [18]: 2.9
Activity [19]: Non-toxic
Activity [20]: Non-toxic
Activity [21]: Dose-dependent effect
